In patent publication US10231985B2, “Compounds and compositions comprising such compounds for the prevention or treatment of dyslipidaemias” (CENTRE NATIONAL DE LA RECHERCHE SCIENTIFIQUE, priority 2013, dated 2019):

What was measured:
[1] = test system: eIF2α phosphorylation (UPR); experiment: eIF2α phosphorylation by Western blot in lipointoxicated β-cells; type: cell-based, rat; conditions: BRIN-BD11, 200 μM palmitic acid
Protocol: Pancreatic β-cells, BRIN-BD11, were grown under control conditions or in the presence of an exogenous source of saturated fatty acid (200 μM palmitic acid), as described by Dhayal & Morgan (2011), in order to generate lipointoxication conditions, with or without the addition of OAG. A) The proportion of dead cells was estimated in the absence (control) or presence of palmitic acid, for increasing concentrations of OAG. B) eIF2α phosphorylation levels were also analyzed under the various conditions by Western blot, in the presence or absence (Ø) of OAG, and were normalized to total eIF2α.
BRIN-BD11 cells are seeded at a density of 0.5×10^5 cells/ml in T25 flasks for 24 hours. As indicated above, the complete medium is then replaced by an equivalent lacking FCS but containing the lipid reagents of interest. After 6 hours of incubation, total protein is extracted using lysis buffer (20 mM Tris, 150 mM NaCl, 1 mM EDTA and 1% (v/v) Triton-X) containing protease and phosphatase inhibitors. […] The densitometric analysis of the relative abundance of phosphorylated or non-phosphorylated forms of eIF2α protein is carried out with the Fluor-S Multilmager analysis system combined with the Quantity One software (Bio-Rad UK Ltd).

[2] = test system: lipase; experiment: Resistance to hydrolytic activity of lipases (thin-layer chromatography); type: in vitro ADME; conditions: 10 U of lipase, 30 minutes, 37° C.
Protocol: OAG (15 μmol) and N,N-diethanololeamide were subjected (+) or not (−) to exposure to 10 U of lipase for 30 minutes at 37° C. Following the incubation, the lipid species were extracted from the samples before being separated by thin-layer chromatography.

CCCCCCCC/C=C\CCCCCCCC(=O)OC[C@H](CO)OC(C)=O [OAG, 1-oleoyl-2-acetyl-sn-glycerol]
eIF2α phosphorylation level normalized to total eIF2α (UPR intensity) [1]: reduces the UPR | Hydrolysis by lipases [2]: unlike OAG
